These results are taken from patent US11780849B2, “Imino sulfanone inhibitors of ENPP1” (Volastra Therapeutics, Inc., priority 2020, dated 2023).

Like-named read-outs stand apart in the source and are kept apart here.

One assay addresses ENPP-1 ECD (Homo sapiens (Human), UniProt P22413). As to the kind of experiment: Assay 2: inhibition of ENPP1 hydrolysis of 2′,3′-cGAMP (AMP-Glo, […] enzyme). The settings on record: inhibition of ENPP1 hydrolysis of 2′,3′-cGAMP, no unit in Table 18 (Table 17 legend for this assay uses nM).
In assay [1] the target is ENPP1 on MDA-MB-231 cells (Homo sapiens (Human), UniProt P22413). As to the kind of experiment: Assay 3: inhibition of ENPP1 hydrolysis of AMP p-nitrophenyl ester on MDA-MB-231 cells.
Chain of ENPP1 on MDA-MB-231 cells (P22413 whole entry): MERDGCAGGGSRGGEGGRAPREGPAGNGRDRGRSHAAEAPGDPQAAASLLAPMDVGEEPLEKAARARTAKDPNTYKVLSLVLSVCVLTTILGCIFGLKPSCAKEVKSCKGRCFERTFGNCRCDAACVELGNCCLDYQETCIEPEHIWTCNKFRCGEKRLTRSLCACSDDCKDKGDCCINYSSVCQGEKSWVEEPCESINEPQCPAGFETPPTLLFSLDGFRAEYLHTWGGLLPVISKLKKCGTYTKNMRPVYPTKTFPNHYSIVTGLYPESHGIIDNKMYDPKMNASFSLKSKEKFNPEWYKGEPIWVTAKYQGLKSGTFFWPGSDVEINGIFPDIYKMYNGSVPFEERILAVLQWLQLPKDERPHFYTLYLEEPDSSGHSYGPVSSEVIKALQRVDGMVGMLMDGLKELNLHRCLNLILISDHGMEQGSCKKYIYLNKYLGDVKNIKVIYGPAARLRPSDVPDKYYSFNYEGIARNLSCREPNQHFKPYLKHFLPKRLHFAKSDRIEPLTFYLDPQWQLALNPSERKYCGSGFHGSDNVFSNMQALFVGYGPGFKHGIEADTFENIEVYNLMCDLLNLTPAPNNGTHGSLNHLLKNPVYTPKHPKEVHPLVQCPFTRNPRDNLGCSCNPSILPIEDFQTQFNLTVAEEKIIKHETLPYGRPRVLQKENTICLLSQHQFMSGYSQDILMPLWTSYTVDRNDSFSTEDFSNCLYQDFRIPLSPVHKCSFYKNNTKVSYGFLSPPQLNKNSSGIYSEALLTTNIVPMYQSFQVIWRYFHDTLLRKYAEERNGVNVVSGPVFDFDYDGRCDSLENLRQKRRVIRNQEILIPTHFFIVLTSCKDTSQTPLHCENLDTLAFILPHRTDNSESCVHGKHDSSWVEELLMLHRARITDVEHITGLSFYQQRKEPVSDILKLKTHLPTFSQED
Experimental: Hydrolysis of the p-nitrophenyl ester of AMP (pNP-AMP), an isostere of ATP, is selectively catalyzed by ENPP1 in the supernatant of MDA-MB-231 cell cultures. Inhibition of the hydrolysis of pNP-AMP by MDA-MB-231 at pH 7.4 and 37° C., is a good model of physiologically relevant activity of membrane-bound ENPP1 at disease-relevant expression levels.
MDA-MB-231 cells were harvested using TypLE Express Enzyme digestion and suspended in 100 μL of Leibovitz's L-15 Medium, 20% FBS, seeding the cells in a 96-well assay plate with 4.5×10^4 cells/well. Cells were incubated at 37° C. with 1% CO2 for 24 h. In a separate dilution plate, 2× of top dose of compound was prepared in phenol-red free 1640 medium without FBS and then 1:3 serial diluted in the same medium. The cell culture medium of L15 medium was aspirated carefully and cells were washed with PBS once, and 50 μL per well of test compound or DMSO blank were added to the assay plate. Substrate mix (50 μL; 0.5 mM pNP-AMP in phenol-red free 1640 media without FBS) was added for a pNP-AMP final concentration of 0.25 mM. The system was incubated at 37° C. for 3 h.
Where [2] appears, read: read-out: Assay 3 (KI, app), apparent KI from IC50 via Cheng/Prusoff, pNP-AMP […], MDA-MB-231 cells, pH 7.4, 37° C., 3 h, unit inferred.

Chain of ENPP-1 ECD (P22413 98-925): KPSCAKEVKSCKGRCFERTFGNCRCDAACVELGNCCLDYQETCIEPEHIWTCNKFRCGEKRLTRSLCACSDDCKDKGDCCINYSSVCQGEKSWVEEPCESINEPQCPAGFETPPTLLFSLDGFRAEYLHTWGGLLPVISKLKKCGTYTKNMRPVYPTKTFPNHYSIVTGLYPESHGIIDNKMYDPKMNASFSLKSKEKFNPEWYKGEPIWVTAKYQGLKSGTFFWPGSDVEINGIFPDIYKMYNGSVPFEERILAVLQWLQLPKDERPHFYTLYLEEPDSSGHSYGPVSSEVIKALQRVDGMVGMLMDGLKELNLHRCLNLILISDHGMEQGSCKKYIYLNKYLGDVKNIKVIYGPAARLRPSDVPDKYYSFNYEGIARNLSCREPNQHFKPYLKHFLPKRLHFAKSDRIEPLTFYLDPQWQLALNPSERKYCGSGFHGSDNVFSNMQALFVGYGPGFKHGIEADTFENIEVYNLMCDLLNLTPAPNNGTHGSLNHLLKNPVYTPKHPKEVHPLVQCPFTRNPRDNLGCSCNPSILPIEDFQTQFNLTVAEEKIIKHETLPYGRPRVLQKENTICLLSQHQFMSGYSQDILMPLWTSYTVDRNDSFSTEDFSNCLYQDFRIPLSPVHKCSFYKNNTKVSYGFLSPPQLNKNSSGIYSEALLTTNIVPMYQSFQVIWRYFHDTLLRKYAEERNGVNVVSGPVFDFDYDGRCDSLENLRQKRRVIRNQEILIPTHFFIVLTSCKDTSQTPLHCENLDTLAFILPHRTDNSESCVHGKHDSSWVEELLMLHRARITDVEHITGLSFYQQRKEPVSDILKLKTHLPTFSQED
Experimental for ENPP-1 ECD: Assay 2: Compared to the conditions in Assay 1, this assay has a larger dynamic range and ensures the system is under steady-state conditions by reducing the enzyme concentration in the assay.
Test compounds were plated in a 3× dilution scheme in a 384 well plate. […] AMP Detection solution (10 μL) was added to each well, the plate centrifuged and incubated for 60 min.

`COc1cccc2c(N3CCC(C[S@](=N)(=O)C4CC4)CC3)c(C#N)cnc12` [Compound 189b]: the Ki came to 0.0075 nM at ENPP-1 ECD (read-out: Assay 2 (KI)) and 310 pM in assay [1] (setting [2]).

On to `COc1cccc2c(N3CCC(CS(=N)(=O)C4CC4)CC3)ncnc12` (stereo not drawn) [Compound 190, cyclopropyl(imino){[1-(8-methoxyquinazolin-4-yl)piperidin-4-yl]methyl}-λ^6-sulfanone], for which the Ki at ENPP-1 ECD (Assay 2 (KI)) is 0.19 nM; in assay [1], 7300 pM.

On to `COc1cccc2c(N3CCC(O)(CS(=N)(=O)C4CCC4)CC3)ncnc12` (stereo not drawn) [Compound 191, cyclobutyl({[4-hydroxy-1-(8-methoxyquinazolin-4-yl)piperidin-4-yl]methyl})imino-λ^6-sulfanone], for which the figures for the Ki (on ENPP-1 ECD (Assay 2 (KI)); in assay [1]) were 0.34 nM and 15000 pM, respectively.

Take `COc1cccc2c(N3CCC(O)(CS(=N)(=O)C4CC4)CC3)ncnc12` (stereo not drawn) [Compound 193, cyclopropyl({[4-hydroxy-1-(8-methoxyquinazolin-4-yl)piperidin-4-yl]methyl})imino-λ^6-sulfanone]: the results for the Ki (on ENPP-1 ECD (Assay 2 (KI)); in assay [1]) were 0.023 nM and 620 pM, respectively.

Regarding `COc1cccc2c(N3CCC(O)(C[S@](=N)(=O)C4CC4)CC3)ncnc12` [Compound 193b], the Ki at ENPP-1 ECD (read-out: Assay 2 (KI)) was found to be 0.012 nM; in assay [1] (setting [2]), 360 pM.

As for `CCOc1cccc2c(N3CCC(O)(CS(C)(=N)=O)CC3)ncnc12` (stereo not drawn) [Compound 196, {[1-(8-ethoxyquinazolin-4-yl)-4-hydroxypiperidin-4-yl]methyl}(imino)methyl-λ^6-sulfanone], the figures for the Ki (on ENPP-1 ECD (Assay 2 (KI)); in assay [1]) were 0.091 nM and 2300 pM, respectively.

As to `CCOc1cccc2c(N3CCC(CS(C)(=N)=O)CC3)c(C#N)cnc12` (stereo not drawn) [Compound 197, 8-ethoxy-4-(4-{[imino(methyl)oxo-λ^6-sulfanyl]methyl}piperidin-1-yl)quinoline-3-carbonitrile], the Ki is 0.04 nM on ENPP-1 ECD (Assay 2 (KI)) and 2300 pM in assay [1].

`COc1cccc2c(N3CCC(O)(CS(C)(=N)=O)CC3)c(C#N)cnc12` (stereo not drawn) [Compound 198, 4-(4-hydroxy-4-{[imino(methyl)oxo-λ^6-sulfanyl]methyl}piperidin-1-yl)-8-methoxyquinoline-3-carbonitrile]: the Ki is 0.014 nM on ENPP-1 ECD (Assay 2 (KI)) and 200 pM in assay [1].

Take `COc1cccc2c(N3CCC(O)(C[S@@](C)(=N)=O)CC3)c(C#N)cnc12` [Compound 198a]: the Ki on ENPP-1 ECD (read-out: Assay 2 (KI)) is 0.0025 nM; in assay [1] (setting [2]) it was 86 pM.

Take `COc1cccc2c(N3CCC(O)(CS(C)(=N)=O)CC3)nc(C)nc12` (stereo not drawn) [Compound 199, {[4-hydroxy-1-(8-methoxy-2-methylquinazolin-4-yl)piperidin-4-yl]methyl}(imino)methyl-λ^6-sulfanone]: the Ki at ENPP-1 ECD (Assay 2 (KI)) is 0.43 nM; in assay [1] it was 8800 pM.

For `CS(=N)(=O)CC1CCN(c2c(C#N)cnc3c(OCF)cccc23)CC1` (stereo not drawn) [Compound 200, 8-(fluoromethoxy)-4-(4-{[imino(methyl)oxo-λ^6-sulfanyl]methyl}piperidin-1-yl)quinoline-3-carbonitrile], the Ki is 0.019 nM on ENPP-1 ECD (Assay 2 (KI)) and 410 pM in assay [1].

As for `COc1cccc2c(N3CCC(CS(C)(=N)=O)CC3)c(C#N)c(C)nc12` (stereo not drawn) [Compound 201, 4-(4-{[imino(methyl)oxo-λ^6-sulfanyl]methyl}piperidin-1-yl)-8-methoxy-2-methylquinoline-3-carbonitrile], the results for the Ki (on ENPP-1 ECD (Assay 2 (KI)); in assay [1]) were 0.69 nM and 12000 pM, respectively.

In the case of `COc1cc2nccc(N3CCC4(CC3)CCN(S(C)(=N)=O)C4)c2cc1F` (stereo not drawn) [Compound 205, [8-(6-fluoro-7-methoxyquinolin-4-yl)-2,8-diazaspiro[4.5]decan-2-yl](imino)methyl-λ^6-sulfanone], the Ki on ENPP-1 ECD (Assay 2 (KI)) is 0.032 nM; in assay [1], 2200 pM.

`COc1cc2nccc(N3CCC4(CC3)CCN([S@@](C)(=N)=O)C4)c2cc1F` [Compound 205b]: the values for the Ki (at ENPP-1 ECD (read-out: Assay 2 (KI)); in assay [1] (setting [2])) were 0.0057 nM and 120 pM, respectively.

Take `COc1cc2ncnc(N3CCC4(CCN(S(C)(=N)=O)CC4)C3)c2cc1OC` (stereo not drawn) [Compound 207, [2-(6,7-dimethoxyquinazolin-4-yl)-2,8-diazaspiro[4.5]decan-8-yl](imino)methyl-λ^6-sulfanone]: the Ki on ENPP-1 ECD (Assay 2 (KI)) came out at 0.037 nM; in assay [1] it was 3300 pM.

As for `COc1cc2nccc(N3CCC4(CC3)CCN(S(C)(=N)=O)C4)c2cc1OC` (stereo not drawn) [Compound 208, [8-(6,7-dimethoxyquinolin-4-yl)-2,8-diazaspiro[4.5]decan-2-yl](imino)methyl-λ^6-sulfanone], the Ki at ENPP-1 ECD (Assay 2 (KI)) came to 0.021 nM; in assay [1], 210 pM.

For `COc1cc2nccc(N3CCC4(CC3)CCN([S@@](C)(=N)=O)C4)c2cc1OC` [Compound 208a], the Ki on ENPP-1 ECD (read-out: Assay 2 (KI)) is 1.1 nM; in assay [1] (setting [2]), 55000 pM.

As to `COc1cc2nccc(N3CCC4(CC3)CCN([S@](C)(=N)=O)C4)c2cc1OC` [Compound 208b], the Ki on ENPP-1 ECD (read-out: Assay 2 (KI)) was determined as 0.0078 nM; in assay [1] (setting [2]), 160 pM.

In the case of `COc1cc2ncc(C#N)c(N3CCC4(CC3)CCN(S(C)(=N)=O)C4)c2cc1F` (stereo not drawn) [Compound 210, 6-fluoro-4-{2-[imino(methyl)oxo-λ^6-sulfanyl]-2,8-diazaspiro[4.5]decan-8-yl}-7-methoxyquinoline-3-carbonitrile], the Ki was 0.024 nM at ENPP-1 ECD (Assay 2 (KI)) and 2500 pM in assay [1].

In the case of `COc1cc2nncc(N3CCC4(CC3)CCN(S(C)(=N)=O)C4)c2cc1OC` (stereo not drawn) [Compound 211, [8-(6,7-dimethoxycinnolin-4-yl)-2,8-diazaspiro[4.5]decan-2-yl](imino)methyl-λ^6-sulfanone], the Ki was found to be 0.022 nM on ENPP-1 ECD (Assay 2 (KI)) and 970 pM in assay [1].

As to `COc1cc2nncc(N3CCC4(CC3)CCN([S@](C)(=N)=O)C4)c2cc1OC` [Compound 211a], the figures for the Ki (on ENPP-1 ECD (read-out: Assay 2 (KI)); in assay [1] (setting [2])) were 0.023 nM and 2200 pM, respectively.

`COc1cc2ncnc(N3CCC4(CC3)CCN(S(C)(=N)=O)C4)c2cc1Cl` (stereo not drawn) [Compound 212, [8-(6-chloro-7-methoxyquinazolin-4-yl)-2,8-diazaspiro[4.5]decan-2-yl](imino)methyl-λ^6-sulfanone]: the Ki was 0.047 nM at ENPP-1 ECD (Assay 2 (KI)) and 4400 pM in assay [1].

Turning to `COc1cc2nc(C)nc(N3CCC4(CC3)CCN(S(C)(=N)=O)C4)c2cc1OC` (stereo not drawn) [Compound 213, [8-(6,7-dimethoxy-2-methylquinazolin-4-yl)-2,8-diazaspiro[4.5]decan-2-yl](imino)methyl-λ^6-sulfanone], the Ki at ENPP-1 ECD (Assay 2 (KI)) is 0.058 nM; in assay [1] it was 2800 pM.

Consider `COc1cccc2c(N3CC4(CCN(S(C)(=N)=O)C4)C3)ncnc12` (stereo not drawn) [Compound 217, imino[2-(8-methoxyquinazolin-4-yl)-2,6-diazaspiro[3.4]octan-6-yl]methyl-λ^6-sulfanone], for which the Ki was 0.29 nM at ENPP-1 ECD (Assay 2 (KI)) and 8000 pM in assay [1].

Take `COc1cc2nccc(N3CCC4(CC3)CCN(S(=N)(=O)C3CC3)C4)c2cc1F` (stereo not drawn) [Compound 218, {cyclopropyl[8-(6-fluoro-7-methoxyquinolin-4-yl)-2,8-diazaspiro[4.5]decan-2-yl]imino-λ^6-sulfanyl}one]: the Ki on ENPP-1 ECD (Assay 2 (KI)) is 0.022 nM; in assay [1] it was 690 pM.

For the molecule `COc1cc2nccc(N3CCC4(CC3)CCN([S@@](=N)(=O)C3CC3)C4)c2cc1F` [Compound 218a], the values for the Ki (on ENPP-1 ECD (read-out: Assay 2 (KI)); in assay [1] (setting [2])) were 0.0078 nM and 290 pM, respectively.

`COc1cc2nncc(N3CCC4(CC3)CCN([S@](C)(=N)=O)C4)c2cc1Cl` [Compound 219a]: the Ki at ENPP-1 ECD (read-out: Assay 2 (KI)) was 0.071 nM; in assay [1] (setting [2]) it was 1200 pM.

Turning to `COc1cc2nnc(C)c(N3CCC4(CC3)CCN(S(C)(=N)=O)C4)c2cc1Cl` (stereo not drawn) [Compound 220, [8-(6-chloro-7-methoxy-3-methylcinnolin-4-yl)-2,8-diazaspiro[4.5]decan-2-yl](imino)methyl-λ^6-sulfanone], the Ki was 0.25 nM on ENPP-1 ECD (Assay 2 (KI)) and 11000 pM in assay [1].

`CCS(=N)(=O)N1CCC2(CCN(c3ncnc4cc(OC)c(F)cc34)CC2)C1` (stereo not drawn) [Compound 221, ethyl[8-(6-fluoro-7-methoxyquinazolin-4-yl)-2,8-diazaspiro[4.5]decan-2-yl]imino-λ^6-sulfanone]: the Ki at ENPP-1 ECD (Assay 2 (KI)) amounted to 0.12 nM; in assay [1], 4600 pM.

For `COc1cccc2c(N3CC4(CCN(S(C)(=N)=O)C4)C3)c(C#N)cnc12` (stereo not drawn) [Compound 222, 4-{6-[imino(methyl)oxo-λ^6-sulfanyl]-2,6-diazaspiro[3.4]octan-2-yl}-8-methoxyquinoline-3-carbonitrile], the Ki on ENPP-1 ECD (Assay 2 (KI)) worked out at 0.07 nM; in assay [1] it was 1100 pM.

Consider `COc1cccc2c(N3CC4(CCN([S@@](C)(=N)=O)C4)C3)c(C#N)cnc12` [Compound 222a], for which the values for the Ki (on ENPP-1 ECD (read-out: Assay 2 (KI)); in assay [1] (setting [2])) were 0.034 nM and 1200 pM, respectively.

As to `COc1cccc2c(N3CCC4(C3)CN(S(C)(=N)=O)C4)ncnc12` (stereo not drawn) [Compound 223, imino[6-(8-methoxyquinazolin-4-yl)-2,6-diazaspiro[3.4]octan-2-yl]methyl-λ^6-sulfanone], the Ki on ENPP-1 ECD (Assay 2 (KI)) stood at 0.11 nM; in assay [1], 3200 pM.

On to `COc1cccc2c(N3CCC4(C3)CN([S@](C)(=N)=O)C4)ncnc12` [Compound 223a], for which the values for the Ki (at ENPP-1 ECD (read-out: Assay 2 (KI)); in assay [1] (setting [2])) were 0.047 nM and 3100 pM, respectively.

On to `COc1cccc2c(N3CCC4(C3)CN([S@@](C)(=N)=O)C4)ncnc12` [Compound 223b], for which the Ki on ENPP-1 ECD (read-out: Assay 2 (KI)) was determined as 19 nM; in assay [1] (setting [2]), 460000 pM.

For the molecule `COc1cc2ncnc(N3CCC4(CC3)CCN(S(C)(=N)=O)C4)c2cc1F` (stereo not drawn) [Compound 224, [8-(6-fluoro-7-methoxyquinazolin-4-yl)-2,8-diazaspiro[4.5]decan-2-yl](imino)methyl-λ^6-sulfanone], the results for the Ki (on ENPP-1 ECD (Assay 2 (KI)); in assay [1]) were 0.019 nM and 1100 pM, respectively.

Turning to `COc1cc2nncc(N3CCC4(CC3)CCN(S(=N)(=O)C3CC3)C4)c2cc1Cl` (stereo not drawn) [Compound 225, {[8-(6-chloro-7-methoxycinnolin-4-yl)-2,8-diazaspiro[4.5]decan-2-yl](cyclopropyl)imino-λ^6-sulfanyl}one], the Ki was 0.096 nM at ENPP-1 ECD (Assay 2 (KI)) and 6800 pM in assay [1].
